Values joined by “and” are separate entries in the source; they are usually repeats but may differ in a detail not shown here. Identical values can stand only once.
Assays:
[1] = DPPH radical scavenging test; conditions: mean ± SEM; for DPPH (% Inhibition): compound at 1 mg/mL, 30 min, 517 nm
Experimental: The DPPH assay is widely used, and the simplest and fastest in vitro method for evaluating the antioxidant power of extracts or isolated compounds; it is based on the depletion of the 2,2-diphenyl-1-picrylhydrazyl radical (DPPH˙) by an antioxidant molecule with scavenger activity. This is an extremely sensitive test that can detect the activity of active ingredients present in very low concentrations.
The procedure used was adapted from Wang et al.. Briefly, 0.750 mL of a methanolic solution of each tested compound was treated with 1.5 mL of DPPH solution (0.004%) in MeOH. Samples were stored in the dark at room temperature for 30 min, and the absorbance value was read with a spectrophotometer at 517 nm, which is the maximum peak of absorbance relative to the DPPH radical absorption spectra. The values obtained were fitted into Equation (1) and converted to inhibition percentage (%) of the radical:DPPH inhibition percentage (%) = 100 × [1 − A1/A0](1) where A1 and A0 were, respectively, the absorbance recorded with and without the sample, which are directly proportional to DPPH residual concentration in the sample and DPPH concentration in the control (0.750 of MeOH and 1.5 mL of DPPH solution). […] A linear regression was performed to calculate the sample concentration able to eliminate 50% of DPPH free radicals.

[2] = FRAP (Ferric Reducing Antioxidant Power) assay; conditions: Trolox standard, 37 °C 10 min, 593 nm; mean ± SEM
Description: The FRAP (Ferric Reducing Antioxidant Power) test allows the measurement of the ability of antioxidants to reduce ferric ion to ferrous. This method represents one of the simplest, quickest and least expensive methods for the determination of reducing properties on oxidized species in vitro.
The FRAP test (Ferric Reducing Antioxidant Power) is based on a colorimetric reaction and evaluates the ability of a sample of reducing ferric ions to ferrous ion while complexed with TPTZ (2,4,6-trispyridil-s-triazine). The FRAP solution was prepared from 0.1 M acetate buffer (pH 3.6), 10 mmol/L of TPTZ in 40 mM HCl, and 20 mM solution of FeCl3, with a 10:1:1 ratio, as described. Then, 1.9 mL of this solution was incubated with 0.1 mL of the sample solution at 37 °C for 10 min. The absorbance was read with a UV-Vis spectrophotometer at a 593 nm wavelength, relative to the maximum peak of absorbance of Fe^2+-TPTZ complex. Trolox® was used as a standard and the results are expressed as µmolTE/g.

[3] = UV spectra in solution (MeOH-DMSO): λmax and molar extinction coefficient; assay type: physicochemical; conditions: for ε (molar extinction coefficient): at λmax, Lambert-Beer equation, in M-1 cm-1 (unit assumed); for λmax: solution in MeOH-DMSO, 290–400 nm
Experimental: We next investigated the protective potential against UV radiation of each compound. Specifically, in vitro tests were conducted to determine the parameters related to absorption in the UV spectrum and those fundamental to the relative evaluation of the filtering potential and thus candidature as possible UV sunscreen ingredients of the candidates under examination, including λ critical and SPF (sun protection factor). Since the SPF is correlated to the UV quantitative absorption of the substances, the wavelength of maximum absorption (λmax) and the molar extinction coefficient (ε) of the derivatives in solution (MeOH-DMSO) were evaluated (Figures S1 and S2, Supplementary Materials). The UV spectra of the compounds BZTidr1–6 and BZTcin1–5 were recorded in the UVA-UVB range (290–400 nm) to evaluate their profile and compare it to that of the PBSA, a commercial UVB filter that has a λmax of 302 nm. After this peak, the absorbance of PBSA drops, reaching almost zero in the 325 nm range, and thus not providing absorption in the UVA region.
Once the λmax of each derivative was established, the molar extinction coefficient ε was calculated by applying the Lambert-Beer equation (Table S1, Supplementary Materials): the higher this value, the greater the ability of the compound under examination to absorb UV radiation. […] The excellent values of BZTidr1, BZTidr2 and BZTidr3 are ascribed to the aforementioned hyperchromic shift. In regard to the BZTcin1–5 series, the molar extinction coefficients calculated were very high, and the best values were those of BZTcin1, BZTcin2 and BZTcin3, also attributable to the hyperchromic shift of the absorption spectra. For both series, the excellent absorption capacity of ultraviolet radiation can be traced back to the high π-type conjugation that characterizes them.

[4] = In vitro filtering parameters of O/W sunscreen formulation containing 3% compound (modified Diffey-Robson, PMMA plates); conditions: 3% in formulation, before irradiation
Description: All synthesized compounds were formulated at 3% and their photoprotective efficacy, determined by spectrophotometric measurements using the modified Diffey-Robson method, was compared with that of the lead compound PBSA (used at 3% in the same formulation) and using the base without active as a control (Table 2).
The synthesized compounds were incorporated at a concentration of 3% in a typical oil-in-water sunscreen formulation, to evaluate the filtering parameters, and have the following ingredient composition:
INCI (International Nomenclature Cosmetic Ingredients): aqua, glycerin, Euxyl PE 9010, xanthan gum, Tribehenin PEG-20 Esters, cetearyl alcohol, dicaprylyl carbonate, PPG-26-Buteth-26 (and) PEG-40 Hydrogenated Castor Oil (and) water, C12-C15 Alkyl Benzoate, and Sodium hydroxide (sol. 10%).
As previously reported the protocol indicates to spread 32.5 mg of each formulation on 25 cm^2 PMMA plates with the fingers. Each formulation was tested in triplicate, and five measurements were recorded for each dish, following a 15–30 min incubation in the dark at room temperature. UV transmittance data was recorded using a UV-VIS spectrophotometer in the range 290–400 nm. The blank plate, SPF, UVA-PF and critical wavelength were obtained by SPF Calculator software (version 2.1), Shimadzu, Milan, Italy).

[5] = Photostability study of 3% formulation (post-irradiation filtering parameters); conditions: 3% in formulation, post irradiation
Description: To outline the efficacy and safety profile of a sunscreen formulation, it is essential to provide data relating to photostability. It is possible to provide photodegradation data by recording, pre- and post-irradiation, the transmittance of PMMA plates with finger-coat formulations subjected to a dose of UVA capable of causing erythema, according to the criteria of Garoli et al.. By means of Equations (2) and (3) it was possible to evaluate the residual percentage of SPF in vitro and of UVA-PF for all the prepared formulations. Of greatest interest are the values obtained for the derivatives BZTcin2 and BZTcin4.
To determine the photostability, the previously reported method was adopted, which consists in preparing each plate as mentioned above and subjecting it to solar irradiation quantified as the minimum dose of UVA equivalent to an effective radiant exposure of erythema. The protocol stipulates that, before and after exposure to sunlight, the transmission of the sun protection layer in the range of 290–400 nm is recorded.
Using Equations (2) and (3) below, the residual percentage of SPF in vitro (% SPFeff.) and UVA-PF (% UVA-PFeff.) have been obtained, which, if greater than or equal to 80, can classify a filter as photostable. %SPFeff. = in vitro SPFafter/in vitro SPFbefore × 100(2) %UVA − PFeff. = UVA − PFafter/UVA − PFbefore × 100(3)

[6] = test system: HaCat keratinocytes; experiment: Cell growth inhibition assay, HaCat; assay type: cell-based, human; conditions: 24 h incubation, cell count
Experimental: All synthesized compounds were tested in order to evaluate their in vitro antiproliferative activity. The human melanoma Colo-38 cell line was selected as a tumor skin model, while the immortalized human HaCaT keratinocytes were chosen as a control for the evaluation of the cytotoxicity towards non-cancerous cells and of the selectivity towards tumor cell lines. […] The selectivity index (SI) was also calculated and is the ratio between the IC50 of a given compound towards the non-cancerous cell line and the IC50 of the same compound towards the tumor cell line.
Cell growth inhibition assays were carried out using human melanoma Colo-38 cells and skin HaCat keratinocytes cells. Human melanoma Colo-38 cells were kindly provided by Dr. Patrizio Giacomini (Laboratory of Immunology, Regina Elena Institute, Rome, Italy). HaCat cells were kindly provided by Istituto Zooprofilattico Sperimentale della Lombardia e dell’Emilia Romagna, Brescia, Italy. Cell lines were seeded using concentrations of 40,000 cells/mL and 25,000 cells/mL, respectively. Colo-38 cells were maintained in RPMI 1640, supplemented with 10% fetal bovine serum (FBS), penicillin (100 Units mL^−1), and streptomycin (100 µg mL^−1). HaCat cells were maintained in DMEM, supplemented with 10% fetal bovine serum (FBS), penicillin (100 Units mL^−1), streptomycin (100 µg mL^−1) and glutamine (2 mM); the incubation was performed at 37 °C in a 5% CO2 atmosphere. Tested compounds were dissolved in MeOH/DMSO (1:1) to obtain 50 mM stock solutions and diluted before cell treatment in MeOH 100%. The tested compounds were added at serial dilutions to the cell cultures (from 0.1 to 100 µM) and incubated for 24 h further. Cells were then harvested, suspended in physiological solution, and counted with a Z2 Coulter Counter (Coulter Electronics, Hialeah, FL, USA). The cell number/mL and the IC50 values were determined when untreated cells were in the log phase of cell growth. Cells treated with vehicles and untreated cells were placed in each plate.

COc1ccc(/C=N/NC(=O)c2nc3ccccc3s2)cc1 [BZTidr3, (E)-N′-(4-methoxybenzylidene)benzo[d]thiazole-2-carbohydrazide]
DPPH (% Inhibition) [1]: 24.25 ± 1.38% | FRAP [2]: 273.99 ± 10.12 µmolTE/g | ε (molar extinction coefficient) [3]: 29641.85 | λmax [3]: 333.1 nm | SPF [4]: 1.31 | UVA/UVB [4]: 1.11 | UVAPF0 [4]: 1.44 | λc [4]: 387 nm | SPF [5]: 1.31 | UVA/UVB [5]: 1.11 | UVAPF [5]: 1.41 | λc [5]: 387 nm | melting point: 208 to 215 °C

O=C(N/N=C/c1ccccc1)c1nc2ccccc2s1 [BZTidr1, (E)-N′-benzylidenebenzo[d]thiazole-2-carbohydrazide]
DPPH (% Inhibition) [1]: 10.95 ± 0.12% | FRAP [2]: 282.16 ± 15.03 µmolTE/g | ε (molar extinction coefficient) [3]: 33223.32 | λmax [3]: 319.4 nm | SPF [4]: 1.48 | UVA/UVB [4]: 1.00 | UVAPF0 [4]: 1.37 | λc [4]: 374 nm | SPF [5]: 1.42 | UVA/UVB [5]: 1.00 | UVAPF [5]: 1.42 | λc [5]: 372 nm | melting point: 227 to 230 °C

COc1ccc(/C=N/NC(=O)c2nc3ccccc3s2)cc1O [BZTidr5, (E)-N′-(3-hydroxy-4-methoxybenzylidene)benzo[d]thiazole-2-carbohydrazide]
DPPH (% Inhibition) [1]: 44.00 ± 3.56% | FRAP [2]: 1758.16 ± 60.41 µmolTE/g | ε (molar extinction coefficient) [3]: 23462.08 | λmax [3]: 342.4 nm | SPF [4]: 1.60 | UVA/UVB [4]: 1.06 | UVAPF0 [4]: 1.58 | λc [4]: 387 nm | SPF [5]: 1.60 | UVA/UVB [5]: 1.06 | UVAPF [5]: 1.56 | λc [5]: 387 nm

COc1cc(/C=N/NC(=O)c2nc3ccccc3s2)ccc1O [BZTidr6, (E)-N′-(3-methoxy-4-hydroxybenzylidene)benzo[d]thiazole-2-carbohydrazide]
DPPH (% Inhibition) [1]: >90.00% | DPPH IC50 [1]: 26.22 ± 1.81 µg/mL | FRAP [2]: 3826.51 ± 90.60 µmolTE/g | ε (molar extinction coefficient) [3]: 22071.63 | λmax [3]: 344.8 nm | SPF [4]: 1.24 | UVA/UVB [4]: 1.06 | UVAPF0 [4]: 1.36 | λc [4]: 389 nm | SPF [5]: 1.24 | UVA/UVB [5]: 1.06 | UVAPF [5]: 1.36 | λc [5]: 389 nm

O=C(C=Cc1ccccc1)Nc1nc2ccccc2s1 [BZTcin1, N-(benzo[d]thiazol-2-yl)cinnamamide]
DPPH (% Inhibition) [1]: 0.51 ± 0.27% | FRAP [2]: 98.69 ± 2.06 µmolTE/g | ε (molar extinction coefficient) [3]: 33033.71 | λmax [3]: 317.0 nm | SPF [4]: 1.74 | UVA/UVB [4]: 0.93 | UVAPF0 [4]: 1.38 | λc [4]: 370 nm | SPF [5]: 2.33 | UVA/UVB [5]: 0.93 | UVAPF [5]: 1.48 | λc [5]: 364 nm

N.N.[Cl][Pt][Cl] [Cisplatin, reference compound]
IC50 [6]: 2000 ± 400 nM

O=S(=O)(O)c1ccc2nc(-c3ccccc3)[nH]c2c1 [PBSA, 2-phenyl-1-H-benzimidazole-5-sulfonic acid, reference compound]
DPPH (% Inhibition) [1]: <LOQ * | FRAP [2]: <LOQ * | ε (molar extinction coefficient) [3]: 23881.86 | λmax [3]: 302.0 nm and 302 nm | SPF [4]: 1.91 | UVA/UVB [4]: 0.67 | UVAPF0 [4]: 1.13 | λc [4]: 357 nm | SPF [5]: 1.98 | UVA/UVB [5]: 0.67 | UVAPF [5]: 1.13 | λc [5]: 355 nm

O=C(O)/C=C/c1ccc(O)c(O)c1 [Caffeic acid, reference compound]
DPPH (% Inhibition) [1]: 79.95 ± 0.88% | DPPH IC50 [1]: 5.26 ± 0.41 µg/mL | FRAP [2]: 10,160.24 ± 21.48 µmolTE/g

— article PMC9822352, “Design, Synthesis and Evaluation of New Multifunctional Benzothiazoles as Photoprotective, Antioxidant and Antiproliferative Agents” (Molecules, 2022)
